Activity calls are given as the source filed them. The rule behind the calls is not given here.

Assay [1] concerns BJ. The assay is described as follows: Induction of telomere damage in human BJ cells expressing hTERT and SV40 early region assessed as gammaH2AX/TRF1 colocalizations at 0.1 to 0.5 uM after 24 hrs by immunofluorescence analysis. In kind it is functional.
Assay [2] has as its system BJ. The assay is described as follows: Induction of DNA damage in human BJ cells expressing hTERT and SV40 early region at 0.5 uM after 24 hrs by immunofluorescence analysis. In kind it is functional, cell-based.
Assay [3] relates to Nucleic Acid. The assay is described as follows: Binding affinity to d(TGGGGT) quadruplex DNA by NMR analysis. In kind it is nucleic-acid assay.
For assay [4], the system named is BJ. Kind of assay: Induction of DNA damage in human BJ cells expressing hTERT and SV40 early region assessed as damaged foci colocalized with TRF1 at 0.1 to 0.5 uM after 24 hrs by deconvolution microscopy analysis. In kind it is functional, cell-based.
In assay [5] the test system is Nucleic Acid. The assay is described as follows: Binding affinity to d(TGGGGT) quadruplex DNA at compound/DNA ratio 4:1 by isothermal titration calorimetry analysis. In kind it is nucleic-acid assay.
Assay [6] relates to Nucleic Acid. Kind of assay: Binding affinity to d(TGGGGT) quadruplex DNA by chemical shift perturbation method. In kind it is nucleic-acid assay.
The test system of assay [7] is Nucleic Acid. Kind of assay: Displacement of distamycin-A from d(TGGGGT) quadruplex DNA at compound/DNA ratio 4:1 by isothermal titration calorimetry analysis. In kind it is nucleic-acid assay. A general note: In ITC the heat of successive injections is recorded.
Assay [8] has as its system HeLa. Kind of assay: Cell cycle arrest in human HeLa cells assessed as accumulation at G2/M phase at 3.5 uM after 96 hrs by flow cytometry (reference value: 11%). In kind it is functional. (Flow cytometry measures light scatter and fluorescence of single cells or particles in a stream.)
Assay [9] deals with HeLa. The assay is described as follows: Cell cycle arrest in human HeLa cells assessed as accumulation at S phase at 3.5 uM after 120 hrs by flow cytometry (reference value: 31%). In kind it is functional.
In assay [10] the test system is HeLa. Kind of assay: Cell cycle arrest in human HeLa cells assessed as accumulation at sub-G1 phase at 3.5 uM after 72 hrs by flow cytometry (reference value: 5%). In kind it is functional.
Assay [11] concerns HeLa. Kind of assay: Cytotoxicity against human HeLa cells assessed as decrease in cell survival. In kind it is functional, cell-based.
In assay [12] the test system is HeLa. The assay is described as follows: Cell cycle arrest in human HeLa cells assessed as accumulation at sub-G1 phase at 3.5 uM after 120 hrs by flow cytometry (reference value: 14%). In kind it is functional.
The subject of assay [13] is HeLa. The assay is described as follows: Cell cycle arrest in human HeLa cells assessed as accumulation at S phase at 3.5 uM after 96 hrs by flow cytometry (reference value: 22%). In kind it is functional.
For assay [14], the system named is HeLa. The assay is described as follows: Cell cycle arrest in human HeLa cells assessed as accumulation at G0-G1 phase at 3.5 uM after 24 hrs by flow cytometry (reference value: 57%). In kind it is functional.
Assay [15] has as its system HeLa. The assay is described as follows: Induction of apoptosis in human HeLa cells at 3.5 uM after 72 hrs using Annexin V-FITC vs PI staining by flow cytometry (reference value: 3.9%). In kind it is functional.
The test system of assay [16] is HeLa. Kind of assay: Cell cycle arrest in human HeLa cells assessed as accumulation at G0-G1 phase at 3.5 uM after 96 hrs by flow cytometry (reference value: 67%). In kind it is functional.
The test system of assay [17] is HeLa. The assay is described as follows: Cell cycle arrest in human HeLa cells assessed as accumulation at G0-G1 phase at 3.5 uM after 120 hrs by flow cytometry (reference value: 51%). In kind it is functional.
In assay [18] the test system is HeLa. Kind of assay: Cell cycle arrest in human HeLa cells assessed as accumulation at G2/M phase at 3.5 uM after 72 hrs by flow cytometry (reference value: 14%). In kind it is functional.
The test system of assay [19] is HeLa. Kind of assay: Cell cycle arrest in human HeLa cells assessed as accumulation at S phase at 3.5 uM after 72 hrs by flow cytometry (reference value: 22%). In kind it is functional.
The subject of assay [20] is HeLa. Kind of assay: Induction of apoptosis in human HeLa cells at 3.5 uM after 120 hrs using Annexin V-FITC vs PI staining by flow cytometry (reference value: 8.3%). In kind it is functional.
The test system of assay [21] is HeLa. Kind of assay: Cell cycle arrest in human HeLa cells assessed as accumulation at G2/M phase at 3.5 uM after 24 hrs by flow cytometry (reference value: 16%). In kind it is functional.
The subject of assay [22] is HeLa. The assay is described as follows: Cell cycle arrest in human HeLa cells assessed as accumulation at G2/M phase at 3.5 uM after 120 hrs by flow cytometry (reference value: 18%). In kind it is functional.
Assay [23] concerns HeLa. The assay is described as follows: Cell cycle arrest in human HeLa cells assessed as accumulation at sub-G1 phase at 3.5 uM after 24 hrs by flow cytometry (reference value: 3%). In kind it is functional.
Assay [24] concerns HeLa. Kind of assay: Cell cycle arrest in human HeLa cells assessed as accumulation at S phase at 3.5 uM after 24 hrs by flow cytometry (reference value: 27%). In kind it is functional.
For assay [25], the system named is HeLa. The assay is described as follows: Induction of apoptosis in human HeLa cells at 3.5 uM after 96 hrs using Annexin V-FITC vs PI staining by flow cytometry (reference value: 5.3%). In kind it is functional.
For assay [26], the system named is HeLa. The assay is described as follows: Induction of apoptosis in human HeLa cells at 3.5 uM after 24 hrs using Annexin V-FITC vs PI staining by flow cytometry (reference value: 3.8%). In kind it is functional.
Assay [27] concerns HeLa. The assay is described as follows: Cell cycle arrest in human HeLa cells assessed as accumulation at G0-G1 phase at 3.5 uM after 72 hrs by flow cytometry (reference value: 64%). In kind it is functional.
The test system of assay [28] is HeLa. Kind of assay: Cell cycle arrest in human HeLa cells assessed as accumulation at sub-G1 phase at 3.5 uM after 96 hrs by flow cytometry (reference value: 6%). In kind it is functional.

For `Nc1oc2c(CN3CCCCCC3)c(O)ccc2c(=O)c1-c1nc2ccccc2s1`, the Activity in the assay on BJ [1] is given as 50%. Also, the outcome in the assay with BJ [2], in the assay on Nucleic Acid [3], in the assay on BJ [4] and in the assay with Nucleic Acid [5] was Active.
On to `O=c1c(-c2nc3ccccc3s2)coc2cc(O)ccc12`, for which, in the assay on Nucleic Acid [3], the outcome was inactive.
On the same count and under the same terms, under `Cc1oc2c(CN3CCCC3)c(O)ccc2c(=O)c1-c1nc2ccccc2s1` stands “inactive”; under `Cc1oc2c(CN(C)C)c(O)ccc2c(=O)c1-c1nc2ccccc2s1`, “inactive”.
As for `O=c1c(-c2nc3ccccc3s2)coc2c(CN3CCCC3)c(O)ccc12`, the result with Nucleic Acid [3] was Active.
Still for that read-out and setting: under `CC1CCCCN1Cc1c(O)ccc2c(=O)c(-c3nc4ccccc4s3)coc12` (stereo unspecified) stands “Active”.
On to `O=c1oc2c(CN(CCO)CCO)c(O)ccc2cc1-c1nc2ccccc2s1`, for which, in the assay with Nucleic Acid [6], the result was Active.
On to `CCC1CCCCN1Cc1c(O)ccc2c(=O)c(-c3nc4ccccc4s3)coc12` (stereo unspecified), for which, in the assay on Nucleic Acid [3], the result was Active.
In the case of `O=c1oc2c(CN3CCN(CCO)CC3)c(O)ccc2cc1-c1nc2ccccc2s1`, the result with Nucleic Acid [7] and in the assay with Nucleic Acid [5] was Active.
For `CC1CCCN(Cc2c(O)ccc3c(=O)c(-c4nc5ccccc5s4)coc23)C1` (stereo unspecified), in the assay on Nucleic Acid [3], the outcome was Active.
Still for that read-out and setting: under `O=c1c(-c2nc3ccccc3s2)coc2c(CN3CCOCC3)c(O)ccc12` stands “Active”.
Still for that read-out and setting: under `CN(C)Cc1c(O)ccc2c(=O)c(-c3nc4ccccc4s3)coc12` stands “Active”.
For `CCOC(=O)N1CCN(Cc2c(O)ccc3cc(-c4nc5ccccc5s4)c(=O)oc23)CC1`, in the assay on Nucleic Acid [6], the result was inactive.
For `CCN(CC)Cc1c(O)ccc2c(=O)c(-c3nc4ccccc4s3)coc12`, the Activity in the assay with BJ [1] was found to be 50%. In addition, the outcome in the assay with BJ [2], in the assay with Nucleic Acid [3], with BJ [4] and in the assay with Nucleic Acid [5] was Active.
On to `Cn1cc(NC(=O)c2cc(NC(=O)c3cc(NC=O)cn3C)cn2C)cc1C(=O)NCCC(=N)N`, for which the outcome with BJ [2] and in the assay with BJ [4] was Active.
`CC1CCCC(C)N1Cc1c(O)ccc2c(=O)c(-c3nc4ccccc4s3)c(N)oc12` (stereo unspecified): the Activity in the assay with HeLa [8] is given as 32%; with HeLa [9], 26%; in the assay with HeLa [10] it was 12%; with HeLa [12], 38%; in the assay with HeLa [13], 28%; with HeLa [14], 52%. The Activity in the assay with BJ [1] is recorded as 50%; in the assay with HeLa [15], 7.1%; with HeLa [16] it was 40%; with HeLa [17], 43%; in the assay with HeLa [18] it was 37%; in the assay on HeLa [19], 23%. The Activity stood at 30.6% in the assay with HeLa [20]; 20% in the assay on HeLa [21]; 31% with HeLa [22]; 5% in the assay on HeLa [23]; 28% in the assay on HeLa [24]; 13.9% in the assay with HeLa [25]. In addition, the Activity was 4.6% in the assay on HeLa [26], 40% in the assay on HeLa [27] and 19% in the assay on HeLa [28]. Further, the inhibition result in the assay with HeLa [11] was “Dose-dependent effect”. Moreover, the outcome in the assay on BJ [2], with Nucleic Acid [3], in the assay on BJ [4] and in the assay with Nucleic Acid [5] was Active.
Consider `CC1CCN(Cc2c(O)ccc3c(=O)c(-c4nc5ccccc5s4)coc23)CC1`, for which the result in the assay on Nucleic Acid [3] was Active.
The same measure, in the same setting: the value for `CCc1cc2c(=O)c(-c3nc4ccccc4s3)coc2c(CN(CC)CC)c1O` was “inactive”.
For the molecule `O=c1oc2c(CN3CCN(c4ccccc4)CC3)c(O)ccc2cc1-c1nc2ccccc2s1`, the result in the assay on Nucleic Acid [6] was inactive.
With `CC1(C)C[C@H]2CN(Cc3c(O)ccc4c(=O)c(-c5nc6ccccc6s5)c(N)oc34)[C@](C)(C2)C1`, in the assay with Nucleic Acid [3], the result was inactive.
As to `CN1CCN(Cc2c(O)ccc3cc(-c4nc5ccccc5s4)c(=O)oc23)CC1`, the outcome in the assay with Nucleic Acid [6] was Active.
For `CC1CCCN(Cc2c(O)ccc3c(O)c(-c4nc5ccccc5s4)c(=N)oc23)C1` (stereo unspecified), in the assay on Nucleic Acid [3], the result was Active.
With `O=c1c(-c2nc3ccccc3s2)coc2c(CN3CCCCC3)c(O)ccc12`, in the assay with Nucleic Acid [3], the result was Active.
Same read-out and setting: the value for `CCc1cc2c(=O)c(-c3nc4ccccc4s3)coc2c(CN2CCCC2)c1O` was “inactive”; that for `CC1CCN(Cc2c(O)ccc3c(O)c(-c4nc5ccccc5s4)c(=N)oc23)CC1` was “Active”.
`CCN1CCN(Cc2c(O)ccc3cc(-c4nc5ccccc5s4)c(=O)oc23)CC1`: in the assay on Nucleic Acid [6], the outcome was Active.

(Values after ChEMBL document CHEMBL2177032, “Shooting for selective druglike G-quadruplex binders: evidence for telomeric DNA damage and tumor cell death” (2012).)
